The target in assay [1] is T1, human HDAC1 (Homo sapiens, UniProt Q13547).
T1 construct: purchased BPS Bioscience 50051
As to the kind of experiment: HDAC1 inhibitor enzymatic assay, % inhibition at fixed concentration (BPS Bioscience, fluorogenic). It counts as biochemical. The note with it: read-out: %inhibition of HDACs at 10µM of test compound HDAC1; 10 µM compound; mean of two replicates.

Assay [2] has as its target T2, human HDAC2 (Homo sapiens, UniProt Q92769).
T2 construct: purchased BPS Bioscience 50002
As to the kind of experiment: HDAC2 inhibitor enzymatic assay, % inhibition at fixed concentration. It counts as biochemical. As to conditions: read-out: %inhibition of HDACs at 10µM of test compound HDAC2; 10 µM compound; mean of two replicates.

Assay [3] deals with T3, human HDAC8 (Homo sapiens, UniProt Q9BY41).
T3 construct: purchased BPS Bioscience 50008
T3 sequence (Q9BY41 1-377): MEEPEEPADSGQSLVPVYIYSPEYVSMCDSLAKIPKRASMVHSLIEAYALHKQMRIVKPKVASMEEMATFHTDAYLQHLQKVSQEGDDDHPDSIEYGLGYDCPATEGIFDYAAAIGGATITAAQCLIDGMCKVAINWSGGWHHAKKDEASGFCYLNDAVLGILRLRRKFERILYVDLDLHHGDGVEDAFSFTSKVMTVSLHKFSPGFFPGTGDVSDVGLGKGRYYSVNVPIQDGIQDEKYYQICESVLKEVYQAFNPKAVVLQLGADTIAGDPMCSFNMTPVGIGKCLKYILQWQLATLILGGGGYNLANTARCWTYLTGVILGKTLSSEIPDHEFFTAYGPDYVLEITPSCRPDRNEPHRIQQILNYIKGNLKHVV
As to the kind of experiment: HDAC8 inhibitor enzymatic assay, % inhibition at fixed concentration. It counts as biochemical. The note with it: read-out: %inhibition of HDACs at 10µM of test compound HDAC8; 10 µM compound.

The target in assay [4] is T4, human HDAC6 (Homo sapiens, UniProt Q9UBN7).
T4 sequence (Q9UBN7 1-1215): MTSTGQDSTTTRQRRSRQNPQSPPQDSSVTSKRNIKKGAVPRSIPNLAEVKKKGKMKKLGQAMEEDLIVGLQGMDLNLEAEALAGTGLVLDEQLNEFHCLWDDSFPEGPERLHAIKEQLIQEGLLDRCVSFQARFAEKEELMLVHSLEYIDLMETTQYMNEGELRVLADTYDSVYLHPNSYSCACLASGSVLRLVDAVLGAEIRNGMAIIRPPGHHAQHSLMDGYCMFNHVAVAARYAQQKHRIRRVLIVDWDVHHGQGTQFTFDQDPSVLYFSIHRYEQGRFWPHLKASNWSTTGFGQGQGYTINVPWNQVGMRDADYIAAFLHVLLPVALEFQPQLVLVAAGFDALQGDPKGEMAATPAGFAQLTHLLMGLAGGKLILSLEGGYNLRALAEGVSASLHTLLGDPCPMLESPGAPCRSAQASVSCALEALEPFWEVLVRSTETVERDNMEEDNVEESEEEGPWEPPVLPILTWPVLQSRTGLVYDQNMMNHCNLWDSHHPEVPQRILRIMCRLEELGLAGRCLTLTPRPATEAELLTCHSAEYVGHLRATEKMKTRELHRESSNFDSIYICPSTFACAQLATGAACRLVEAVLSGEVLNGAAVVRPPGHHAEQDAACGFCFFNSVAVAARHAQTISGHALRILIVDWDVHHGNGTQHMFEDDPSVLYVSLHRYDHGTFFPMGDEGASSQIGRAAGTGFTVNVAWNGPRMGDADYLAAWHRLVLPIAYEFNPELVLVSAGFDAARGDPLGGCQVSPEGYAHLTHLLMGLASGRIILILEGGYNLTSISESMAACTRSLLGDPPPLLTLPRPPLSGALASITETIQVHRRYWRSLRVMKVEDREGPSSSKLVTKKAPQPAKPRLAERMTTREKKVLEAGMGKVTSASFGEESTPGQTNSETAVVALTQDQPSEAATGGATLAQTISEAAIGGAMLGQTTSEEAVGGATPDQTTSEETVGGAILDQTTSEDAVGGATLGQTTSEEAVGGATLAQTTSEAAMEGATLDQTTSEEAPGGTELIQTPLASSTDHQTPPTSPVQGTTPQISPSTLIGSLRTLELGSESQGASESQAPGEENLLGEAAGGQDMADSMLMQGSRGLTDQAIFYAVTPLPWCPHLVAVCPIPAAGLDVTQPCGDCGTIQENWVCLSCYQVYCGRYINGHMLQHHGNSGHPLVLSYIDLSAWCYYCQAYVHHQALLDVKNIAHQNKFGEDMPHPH
The assay is described as follows: HDAC6 inhibitor enzymatic assay, % inhibition at fixed concentration. As to conditions: read-out: %inhibition of HDACs at 10µM of test compound HDAC6.

Assay [5] deals with T5, human HDAC7 (Homo sapiens, UniProt Q8WUI4).
T5 sequence (Q8WUI4 479-952 limits assumed): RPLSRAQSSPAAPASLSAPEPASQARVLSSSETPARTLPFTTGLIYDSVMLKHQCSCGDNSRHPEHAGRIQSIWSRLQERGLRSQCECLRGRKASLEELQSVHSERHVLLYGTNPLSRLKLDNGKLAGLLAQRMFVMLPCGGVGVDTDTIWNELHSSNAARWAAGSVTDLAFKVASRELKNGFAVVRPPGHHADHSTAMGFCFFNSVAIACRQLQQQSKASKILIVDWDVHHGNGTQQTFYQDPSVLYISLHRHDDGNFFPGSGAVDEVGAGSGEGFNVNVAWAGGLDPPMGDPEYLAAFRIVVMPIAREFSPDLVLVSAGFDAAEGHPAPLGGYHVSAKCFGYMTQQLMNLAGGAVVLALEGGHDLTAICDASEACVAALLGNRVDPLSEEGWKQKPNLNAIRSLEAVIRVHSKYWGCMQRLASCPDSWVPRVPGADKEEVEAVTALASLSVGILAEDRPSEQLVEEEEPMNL
The assay is described as follows: HDAC7 inhibitor enzymatic assay, % inhibition at fixed concentration. The note with it: read-out: %inhibition of HDACs at 10µM of test compound HDAC7.

Assay [6] addresses T6, human HDAC11 (Homo sapiens, UniProt Q96DB2).
T6 sequence (Q96DB2 1-347): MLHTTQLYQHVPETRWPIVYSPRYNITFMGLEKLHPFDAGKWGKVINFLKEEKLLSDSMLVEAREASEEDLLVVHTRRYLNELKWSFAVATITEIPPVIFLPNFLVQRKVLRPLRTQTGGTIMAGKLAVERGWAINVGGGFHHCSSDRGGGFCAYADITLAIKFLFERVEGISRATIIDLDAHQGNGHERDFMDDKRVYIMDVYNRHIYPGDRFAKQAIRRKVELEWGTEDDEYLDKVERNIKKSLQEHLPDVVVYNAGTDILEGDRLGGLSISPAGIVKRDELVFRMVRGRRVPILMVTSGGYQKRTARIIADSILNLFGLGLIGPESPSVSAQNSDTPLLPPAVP
The assay is described as follows: HDAC11 inhibitor enzymatic assay, % inhibition at fixed concentration. The note with it: read-out: %inhibition of HDACs at 10µM of test compound HDAC11.

T1 sequence (Q13547 whole entry): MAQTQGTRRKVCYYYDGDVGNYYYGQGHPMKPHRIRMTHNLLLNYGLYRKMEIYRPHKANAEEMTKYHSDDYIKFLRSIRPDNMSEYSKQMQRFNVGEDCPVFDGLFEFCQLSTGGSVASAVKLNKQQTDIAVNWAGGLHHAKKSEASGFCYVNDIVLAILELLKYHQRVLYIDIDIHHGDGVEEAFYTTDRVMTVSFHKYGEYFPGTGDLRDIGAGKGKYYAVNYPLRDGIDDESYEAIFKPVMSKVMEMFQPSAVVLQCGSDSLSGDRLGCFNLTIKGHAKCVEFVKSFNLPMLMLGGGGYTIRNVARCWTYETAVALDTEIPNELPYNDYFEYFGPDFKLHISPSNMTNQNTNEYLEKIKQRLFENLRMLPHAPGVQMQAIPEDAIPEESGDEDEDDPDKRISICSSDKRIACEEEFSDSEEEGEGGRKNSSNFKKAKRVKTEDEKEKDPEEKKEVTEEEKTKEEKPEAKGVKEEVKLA
T2 sequence (Q92769 whole entry): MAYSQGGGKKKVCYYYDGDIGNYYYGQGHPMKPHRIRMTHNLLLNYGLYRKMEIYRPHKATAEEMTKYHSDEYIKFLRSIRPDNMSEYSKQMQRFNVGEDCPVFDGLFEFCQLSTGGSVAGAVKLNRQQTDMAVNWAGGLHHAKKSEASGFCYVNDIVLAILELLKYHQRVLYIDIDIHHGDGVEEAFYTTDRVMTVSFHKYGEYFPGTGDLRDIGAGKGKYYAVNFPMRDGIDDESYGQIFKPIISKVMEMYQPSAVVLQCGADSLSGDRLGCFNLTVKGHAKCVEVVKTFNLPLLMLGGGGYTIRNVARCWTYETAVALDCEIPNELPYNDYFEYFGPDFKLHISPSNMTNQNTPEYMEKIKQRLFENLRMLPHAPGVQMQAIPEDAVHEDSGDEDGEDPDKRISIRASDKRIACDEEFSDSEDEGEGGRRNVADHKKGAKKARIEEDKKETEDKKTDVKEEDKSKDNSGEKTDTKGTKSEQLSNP

As usually defined, the inhibition is the drop in the measured response relative to a control, in per cent. For the compound `O=C(CCCSc1nc2ccccc2n1Cc1ccccc1)NO` [Compound 10a, 4-((1-benzyl-1H-benzo[d]imidazol-2-yl)thio)-N-hydroxybutanamide], the inhibition at 10 µM in assay [1] stood at 36%; in assay [2] it was 19%; in assay [3], 56%; in assay [4], 92%; in assay [5] it was 2%; in assay [6], 6%.

These data come from publication PMC6522981, “Structure-based design generated novel hydroxamic acid based preferential HDAC6 lead inhibitor with on-target cytotoxic activity against primary choroid plexus carcinoma” (Journal of Enzyme Inhibition and Medicinal Chemistry, 2019).
